Results: ChEMBL document CHEMBL6182870, “Synthesis and biological activity of 1H-pyrrolo[3,2-g]isoquinolines as Haspin kinase inhibitors” (Bioorg Med Chem, 2025)

Assays:
[1] = biological target: T1, Serine/threonine-protein kinase haspin (Homo sapiens) (UniProt Q8TF76); assay: Inhibition of recombinant human haspin kinase domain (470 to 798 residues) extracted from bacteria using histone H3 (1 to 21) peptide as substrate assessed as residual activity at 10 uM incubated for 30 mins in presence of ATP by ADP-Glo kinase assay relative to control
T1 sequence (whole entry): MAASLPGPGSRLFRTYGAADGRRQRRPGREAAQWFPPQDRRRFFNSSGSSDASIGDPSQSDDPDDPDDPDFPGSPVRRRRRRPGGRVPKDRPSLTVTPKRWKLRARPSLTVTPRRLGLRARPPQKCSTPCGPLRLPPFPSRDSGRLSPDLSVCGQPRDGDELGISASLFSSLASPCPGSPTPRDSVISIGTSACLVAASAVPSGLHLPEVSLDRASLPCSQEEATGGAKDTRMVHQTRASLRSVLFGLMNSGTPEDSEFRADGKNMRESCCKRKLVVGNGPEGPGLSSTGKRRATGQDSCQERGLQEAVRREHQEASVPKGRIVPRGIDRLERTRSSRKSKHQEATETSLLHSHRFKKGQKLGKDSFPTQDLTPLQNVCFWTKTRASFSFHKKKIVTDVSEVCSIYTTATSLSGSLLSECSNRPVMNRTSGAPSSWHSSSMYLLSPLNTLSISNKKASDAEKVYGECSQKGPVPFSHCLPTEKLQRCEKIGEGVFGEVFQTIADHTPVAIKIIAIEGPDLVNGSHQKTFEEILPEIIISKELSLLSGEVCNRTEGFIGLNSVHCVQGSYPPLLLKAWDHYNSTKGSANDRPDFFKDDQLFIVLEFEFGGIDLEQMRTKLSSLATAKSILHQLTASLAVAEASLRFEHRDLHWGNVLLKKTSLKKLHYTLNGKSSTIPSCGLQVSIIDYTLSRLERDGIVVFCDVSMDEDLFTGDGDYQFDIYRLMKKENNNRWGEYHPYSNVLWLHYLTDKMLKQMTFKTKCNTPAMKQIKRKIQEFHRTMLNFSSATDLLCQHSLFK

[2] = biological target: T1, Serine/threonine-protein kinase haspin (Homo sapiens); assay: Inhibition of recombinant human haspin kinase domain (470 to 798 residues) extracted from bacteria using histone H3 (1 to 21) peptide as substrate assessed as residual activity at 1 uM incubated for 30 mins in presence of ATP by ADP-Glo kinase assay relative to control
[3] = biological target: T2, Serine/threonine-protein kinase haspin (Homo sapiens, UniProt Q8TF76); assay: Inhibition of recombinant human haspin kinase domain (470 to 798 residues) extracted from bacteria using histone H3 (1 to 21) peptide as substrate incubated for 30 mins in presence of ATP by ADP-Glo kinase assay
T2 sequence (Q8TF76 whole entry): T1 sequence (whole entry)

[4] = biological target: Dual specificity tyrosine-phosphorylation-regulated kinase 1A (Rattus norvegicus) (UniProt Q63470); assay: Inhibition of recombinant rat DYRK1A kinase domain (1 to 499 residues) extracted from bacteria using KKISGRLSPIMTEQ as substrate assessed as enzyme residual activity at 10 uM incubated for 30 mins in presence of ATP by ADP-Glo kinase assay relative to control
[5] = biological target: Dual specificity protein kinase CLK1 (Mus musculus) (UniProt P22518); assay: Inhibition of recombinant mouse CLK1 extracted from bacteria using GRSRSRSRSRSR as substrate assessed as enzyme residual activity at 10 uM incubated for 30 mins in presence of ATP by ADP-Glo kinase assay relative to control
Dual specificity protein kinase CLK1 (Mus musculus), sequence (P22518 whole entry, looked up, the tested form may be a part): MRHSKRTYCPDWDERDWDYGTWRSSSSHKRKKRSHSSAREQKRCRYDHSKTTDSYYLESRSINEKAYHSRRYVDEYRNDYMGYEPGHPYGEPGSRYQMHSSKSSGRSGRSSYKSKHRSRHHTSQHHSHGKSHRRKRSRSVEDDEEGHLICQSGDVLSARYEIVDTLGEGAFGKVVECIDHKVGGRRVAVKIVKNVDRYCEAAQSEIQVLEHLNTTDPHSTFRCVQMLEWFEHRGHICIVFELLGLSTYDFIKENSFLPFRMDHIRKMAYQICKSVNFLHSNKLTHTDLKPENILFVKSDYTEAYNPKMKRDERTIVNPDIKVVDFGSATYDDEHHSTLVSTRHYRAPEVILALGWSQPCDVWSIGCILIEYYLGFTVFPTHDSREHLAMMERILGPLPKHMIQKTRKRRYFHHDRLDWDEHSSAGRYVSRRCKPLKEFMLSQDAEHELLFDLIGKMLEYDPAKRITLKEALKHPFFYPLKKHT

[6] = biological target: Dual specificity protein kinase CLK1 (Mus musculus) (UniProt P22518); assay: Inhibition of recombinant mouse CLK1 extracted from bacteria using GRSRSRSRSRSR as substrate assessed as enzyme residual activity at 1 uM incubated for 30 mins in presence of ATP by ADP-Glo kinase assay relative to control
[7] = biological target: Dual specificity tyrosine-phosphorylation-regulated kinase 1A (Rattus norvegicus) (UniProt Q63470); assay: Inhibition of recombinant rat DYRK1A kinase domain (1 to 499 residues) extracted from bacteria using KKISGRLSPIMTEQ as substrate assessed as enzyme residual activity at 1 uM incubated for 30 mins in presence of ATP by ADP-Glo kinase assay relative to control
[8] = Inhibition of recombinant human CDK9/Cyclin T extracted from baculovirus infected Sf9 cells using YSPTSPSYSPTSPSYSPTSPSKKKK as substrate assessed as enzyme residual activity at 10 uM incubated for 30 mins in presence of ATP by ADP-Glo kinase assay relative to control
[9] = Inhibition of recombinant human CDK9/Cyclin T extracted from baculovirus infected Sf9 cells using YSPTSPSYSPTSPSYSPTSPSKKKK as substrate assessed as enzyme residual activity at 1 uM incubated for 30 mins in presence of ATP by ADP-Glo kinase assay relative to control
[10] = biological target: Glycogen synthase kinase-3 beta (Homo sapiens) (UniProt P49841); assay: Inhibition of recombinant human GSK3beta extracted from baculovirus infected Sf9 cells using GS-1 (YRRAAVPPSPSLSRHSSPHQSpEDEEE) peptide as substrate assessed as enzyme residual activity at 10 uM incubated for 30 mins in presence of ATP by ADP-Glo kinase assay relative to control
Glycogen synthase kinase-3 beta (Homo sapiens), sequence (P49841 whole entry, looked up, canonical isoform): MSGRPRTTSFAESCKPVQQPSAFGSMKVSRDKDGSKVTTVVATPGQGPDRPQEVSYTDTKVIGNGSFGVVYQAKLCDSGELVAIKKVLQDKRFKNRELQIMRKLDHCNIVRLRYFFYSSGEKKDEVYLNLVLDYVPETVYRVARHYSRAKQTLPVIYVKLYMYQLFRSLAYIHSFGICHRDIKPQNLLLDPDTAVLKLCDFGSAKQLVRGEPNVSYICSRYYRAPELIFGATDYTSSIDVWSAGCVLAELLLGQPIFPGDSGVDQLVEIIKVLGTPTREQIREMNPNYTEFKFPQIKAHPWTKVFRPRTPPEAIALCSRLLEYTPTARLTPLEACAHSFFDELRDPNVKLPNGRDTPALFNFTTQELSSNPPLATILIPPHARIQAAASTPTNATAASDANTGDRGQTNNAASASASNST

[11] = biological target: Glycogen synthase kinase-3 beta (Homo sapiens) (UniProt P49841); assay: Inhibition of recombinant human GSK3beta extracted from baculovirus infected Sf9 cells using GS-1 (YRRAAVPPSPSLSRHSSPHQSpEDEEE) peptide as substrate assessed as enzyme residual activity at 1 uM incubated for 30 mins in presence of ATP by ADP-Glo kinase assay relative to control
[12] = biological target: Casein kinase I isoform epsilon (Homo sapiens) (UniProt P49674); assay: Inhibition of recombinant human CK1epsilon extracted from baculovirus infected Sf9 cells using RRKHAAIGSpAYSITA peptide as substrate assessed as enzyme residual activity at 10 uM incubated for 30 mins in presence of ATP by ADP-Glo kinase assay relative to control
Casein kinase I isoform epsilon (Homo sapiens), sequence (P49674 whole entry, looked up, canonical isoform): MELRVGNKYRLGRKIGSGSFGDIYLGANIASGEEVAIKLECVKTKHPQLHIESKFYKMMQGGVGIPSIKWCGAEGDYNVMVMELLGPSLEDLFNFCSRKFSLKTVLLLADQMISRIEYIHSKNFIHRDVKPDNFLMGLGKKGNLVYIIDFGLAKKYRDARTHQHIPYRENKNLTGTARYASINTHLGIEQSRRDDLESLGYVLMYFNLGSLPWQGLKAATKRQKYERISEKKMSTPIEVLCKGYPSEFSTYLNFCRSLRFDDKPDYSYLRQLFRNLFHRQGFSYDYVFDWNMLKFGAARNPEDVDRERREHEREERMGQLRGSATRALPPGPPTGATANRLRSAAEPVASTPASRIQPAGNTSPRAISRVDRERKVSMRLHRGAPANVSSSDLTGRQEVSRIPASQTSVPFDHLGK

[13] = biological target: Casein kinase I isoform epsilon (Homo sapiens) (UniProt P49674); assay: Inhibition of recombinant human CK1epsilon extracted from baculovirus infected Sf9 cells using RRKHAAIGSpAYSITA peptide as substrate assessed as enzyme residual activity at 1 uM incubated for 30 mins in presence of ATP by ADP-Glo kinase assay relative to control
[14] = biological target: T3, Cyclin-dependent kinase 5/CDK5 activator 1 (Homo sapiens) (UniProt Q00535+Q15078); assay: Inhibition of recombinant human CDK5/p25 extracted from bacteria using histone H1 as substrate assessed as enzyme residual activity at 10 uM incubated for 30 mins in presence of ATP by ADP-Glo kinase assay relative to control; type: protein-complex assay
T3 sequence (Q00535 whole entry): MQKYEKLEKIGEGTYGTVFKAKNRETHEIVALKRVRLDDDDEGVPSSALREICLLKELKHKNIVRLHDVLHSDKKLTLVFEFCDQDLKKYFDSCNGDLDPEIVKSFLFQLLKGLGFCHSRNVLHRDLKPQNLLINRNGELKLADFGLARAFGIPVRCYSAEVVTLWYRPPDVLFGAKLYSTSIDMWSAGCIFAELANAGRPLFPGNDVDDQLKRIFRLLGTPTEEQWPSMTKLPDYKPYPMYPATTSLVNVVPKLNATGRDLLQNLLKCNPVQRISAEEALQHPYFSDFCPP
T3 sequence (Q15078 99-307 partner limits assumed): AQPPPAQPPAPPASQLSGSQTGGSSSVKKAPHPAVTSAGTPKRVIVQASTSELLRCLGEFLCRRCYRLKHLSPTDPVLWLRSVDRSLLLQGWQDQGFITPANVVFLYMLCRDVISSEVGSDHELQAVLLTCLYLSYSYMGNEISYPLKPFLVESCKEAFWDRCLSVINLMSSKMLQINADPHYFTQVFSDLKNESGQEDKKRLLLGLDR

[15] = biological target: T3, Cyclin-dependent kinase 5/CDK5 activator 1 (Homo sapiens); assay: Inhibition of recombinant human CDK5/p25 extracted from bacteria using histone H1 as substrate assessed as enzyme residual activity at 1 uM incubated for 30 mins in presence of ATP by ADP-Glo kinase assay relative to control; type: protein-complex assay
[16] = biological target: T4, Serine/threonine-protein kinase pim-1 (Homo sapiens, UniProt P11309); assay: Inhibition of recombinant human PIM-1 extracted from bacteria using histone H1 as substrate assessed as enzyme residual activity at 10 uM incubated for 30 mins in presence of ATP by ADP-Glo kinase assay relative to control
Target sequence in this assay (P11309 whole entry, looked up): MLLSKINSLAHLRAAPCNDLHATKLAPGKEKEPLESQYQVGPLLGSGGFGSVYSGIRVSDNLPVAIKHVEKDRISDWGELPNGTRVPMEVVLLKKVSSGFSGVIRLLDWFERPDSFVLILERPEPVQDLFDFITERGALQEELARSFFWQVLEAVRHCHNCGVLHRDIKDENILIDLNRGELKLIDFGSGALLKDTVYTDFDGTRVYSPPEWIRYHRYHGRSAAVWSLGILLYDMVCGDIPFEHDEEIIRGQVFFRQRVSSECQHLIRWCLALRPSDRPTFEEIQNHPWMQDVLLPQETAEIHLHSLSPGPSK

[17] = biological target: T4, Serine/threonine-protein kinase pim-1; assay: Inhibition of recombinant human PIM-1 extracted from bacteria using histone H1 as substrate assessed as enzyme residual activity at 1 uM incubated for 30 mins in presence of ATP by ADP-Glo kinase assay relative to control
Target sequence in this assay (P11309 whole entry, looked up): as above

SH-SY5Y = assay: Antiproliferative activity against human SH-SY5Y cells assessed as inhibition of cell viability incubated for 48 hrs by MTS assay; type: functional, cell-based
U2OS = assay: Antiproliferative activity against human U2OS cells assessed as inhibition of cell viability incubated for 48 hrs by MTS assay; type: functional, cell-based
[18] = biological target: Dual specificity protein kinase CLK1 (Mus musculus, UniProt P22518); assay: Inhibition of recombinant mouse CLK1 extracted from bacteria using GRSRSRSRSRSR as substrate incubated for 30 mins in presence of ATP by ADP-Glo kinase assay
Dual specificity protein kinase CLK1, sequence (P22518 whole entry, the tested form may be a part): as the sequence (P22518 whole entry, looked up, the tested form may be a part) above

[19] = biological target: Dual specificity tyrosine-phosphorylation-regulated kinase 1A (Rattus norvegicus, UniProt Q63470); assay: Inhibition of recombinant rat DYRK1A kinase domain (1 to 499 residues) extracted from bacteria using KKISGRLSPIMTEQ as substrate incubated for 30 mins in presence of ATP by ADP-Glo kinase assay
[20] = biological target: T4, Serine/threonine-protein kinase pim-1; assay: Inhibition of recombinant human PIM-1 extracted from bacteria using histone H1 as substrate incubated for 30 mins in presence of ATP by ADP-Glo kinase assay
Target sequence in this assay (P11309 whole entry): as the sequence (P11309 whole entry, looked up) above

[21] = Cytotoxicity against human hTERT-RPE1 cells assessed as effect on cell viability incubated for 48 hrs by MTS assay; type: toxicity, cell-based, TERT-RPE1
HBL-100 = assay: Antiproliferative activity against human HBL-100 cells assessed as inhibition of cell viability incubated for 48 hrs by MTS assay; type: functional, cell-based; details: HBL-100, 48 h
HCT-116 = assay: Antiproliferative activity against human HCT-116 cells assessed as inhibition of cell viability incubated for 48 hrs by MTS assay; type: functional, cell-based; details: HCT-116, 48 h
[22] = biological target: T1, Serine/threonine-protein kinase haspin (Homo sapiens); assay: Inhibition of haspin in human U2OS cells assessed as at 5 uM incubated for 16 hrs by DAPI staining based immunofluorescence analysis relative to control; type: cell-based

Compound | Activity [1] | Activity [2] | Activity [4] | Activity [5] | Activity [6] | Activity [7] | Activity [8] | Activity [9] | Activity [10] | Activity [11] | Activity [12] | Activity [13] | Activity [14] | Activity [15] | Activity [16] | Activity [17] | also measured
O=C1CCC(N2C(=O)c3cccc(NCCOCCOCCOCCn4cc(Cl)c5cc6ccncc6cc54)c3C2=O)C(=O)N1 (stereo unspecified) | 90% | 78% | – | – | – | – | – | – | – | – | – | – | – | – | – | – | –
c1cc2c(ccc3cc[nH]c32)cn1 | 9% | 39% | 31% | 43% | 80% | 50% | 45% | 59% | 76% | 82% | 94% | 95% | 63% | 77% | 38% | 64% | IC50 [3]: 258 nM
O=C1CCC(N2C(=O)c3cccc(NCCOCCOCCOCCn4ccc5cc6ccncc6cc54)c3C2=O)C(=O)N1 (stereo unspecified) | 83% | 95% | 87% | 94% | 100% | 100% | 88% | 91% | 81% | 93% | 97% | 100% | 100% | 100% | 86% | 95% | –
O=C1CCC(N2C(=O)c3cccc(NCCOCCOCCOCCNC(=O)c4c[nH]c5cc6cnccc6cc45)c3C2=O)C(=O)N1 (stereo unspecified) | 60% | 74% | 84% | 97% | 97% | 90% | 86% | 100% | 85% | 82% | 99% | 100% | 100% | 100% | 75% | 67% | –
O=C1CCC(N2C(=O)c3cccc(NCCOCCOCCOCCn4cc(-c5ccncc5)c5cc6ccncc6cc54)c3C2=O)C(=O)N1 (stereo unspecified) | 71% | 67% | 64% | 89% | 100% | 90% | 96% | 97% | 81% | 84% | 84% | 99% | 100% | 100% | 64% | 74% | –
O=C1CCC(N2C(=O)c3cccc(NCCOCCOCCOCCn4cc(-c5cccnc5)c5cc6ccncc6cc54)c3C2=O)C(=O)N1 (stereo unspecified) | 71% | 70% | 74% | 79% | 90% | 65% | 81% | 91% | 74% | 86% | 91% | 100% | 100% | 100% | 66% | 61% | –
c1cc2cc3c(cc2cn1)NCC3 | 28% | 66% | 66% | 80% | 98% | 68% | 62% | 75% | 80% | 78% | 96% | 92% | 88% | 89% | 70% | 65% | –
O=C1CCC(N2C(=O)c3cccc(NCCOCCOCCOCCn4cc(I)c5cc6ccncc6cc54)c3C2=O)C(=O)N1 (stereo unspecified) | 100% | 80% | – | – | – | – | – | – | – | – | – | – | – | – | – | – | –
c1cncc(-c2c[nH]c3cc4cnccc4cc23)c1 | 2% | 7% | 6% | 8% | 19% | 36% | 39% | 74% | 37% | 75% | 70% | 91% | 57% | 86% | 22% | 37% | EC50 (SH-SY5Y): 41200 nM; EC50 (U2OS): 26700 nM; IC50 [3]: 30.6 nM; IC50 [18]: 237 nM; IC50 [19]: 602 nM; IC50 [20]: 114 nM; EC50 at 48 h [21]: 18200 nM; EC50 (HBL-100): > 50000 nM; EC50 (HCT-116): 13000 nM; inhibition [22]: 26%
Cn1cc(-c2ccccn2)c2cc3ccncc3cc21 | 7% | 25% | 23% | 36% | 73% | 63% | 49% | 77% | 53% | 67% | 89% | 100% | 100% | 100% | 38% | 74% | IC50 [3]: 173 nM
O=C1CCC(N2C(=O)c3cccc(NCCOCCOCCOCCn4cc(Br)c5cc6ccncc6cc54)c3C2=O)C(=O)N1 (stereo unspecified) | 86% | 98% | – | – | – | – | – | – | – | – | – | – | – | – | – | – | –
